# According to patent US8969249B2, “Synthesis and biological activity of bicyclic ABA analogs” (National Research Council of Canada, priority 2004, dated 2015):
# Legend:
# [1] = tested on: Arabidopsis thaliana (Columbia wild type) seeds; assay: seed germination inhibition assay; type: in vivo; conditions: for germination index: lowest concentration of 0.33 μM
# Experimental: (§1) In yet an additional embodiment, bicyclic ABA and analogs of the present invention may be used in a process for inhibiting seed germination. In one embodiment, bicyclic ABA is used in a germination assay of Arabidopsis thaliana (Columbia wild type) seeds over a wide range of concentrations (0.33-33 μM). Similar treatments were performed for ABA [1] (both enantiomers) to allow for a direct comparison between ABA and bicyclic ABA (both enantiomers). The results are expressed in terms of germination indices, which summarize the rate and extent of germination over the time of the experiment at a given concentration. […] At the lowest concentration of 0.33 μM, the germination index for (+)-ABA (1) was almost 0.4, compared with less than 0.1 in the case of (+) bicyclic ABA [8].
# as §1, with “Bicyclic” for “In yet an additional embodiment, bicyclic”, “produced using the process” for “and analogs”, “was also studied” for “may be used in a process for inhibiting seed germination. In one embodiment, bicyclic ABA is used”, “μM) (FIG. 7).” for “μM).”, “[1]” for “(1)”, “[8]. […] It was only active at concentrations of ≧1 μM.” for “[8].”
# Arabidopsis thaliana (Columbia wild type) seed germination inhibition studies were performed as described by Cutler et. al. (23). The treatments were performed in duplicate with 50 seeds per plate and incubated at 24° C. with 16 hr days and 8 hr nights for the duration of the test (7 days).
# [2] = tested on: suspension-cultured cells of maize (Black Mexican Sweet); assay: growth inhibition assay using suspension-cultured corn cells; type: cell-based; conditions: for inhibition of growth of suspension-cultured maize cells: dose-dependent over concentration range 0.1-10.0 μM
# Description: In yet another embodiment, a process for inhibiting plant cell growth using the bicyclic ABA and analogs of the present invention is described. The ability of bicyclic ABA and analogs of the present invention to inhibit plant cell growth may be assayed with a growth inhibition assay. In one assay, suspension-cultured corn cells are used in a well characterized experimental system that has been useful for comparing the biological activity and metabolism of ABA and ABA analogs (6).
# The growth inhibition assay using suspension-cultured corn cells is a well characterized experimental system that has been very useful for comparing the biological activity and metabolism of ABA and ABA analogs (6).
# Maize cell cultures were treated as described by Balsevich et. al. (6). The cultures were incubated on a rotary shaker for 4 days, and the cells were separated from the medium by vacuum filtration and weighed immediately. The effect of ABA and bicyclic ABA on cell growth was determined at various concentrations (0-10 μM) by calculating the percentage increase in fresh weight [(final weight×100/initial weight)−100)]. Measurements were performed in triplicate and average values were normalized to a control (untreated) value of 100%.
Compound,germination index ([1]; 7-day test),inhibition of growth of suspension-cultured maize cells [2],"germination inhibition compared with comparator (in words) ([1]; (+)-[8] versus (+) ABA, (−)-[8] versus (+)-[8])","inhibition of seed germination (in words) ([1]; all concentrations (0.33-33 μM), 7-day test period)","inhibitory activity (cell growth) relative to (+)-ABA ([2]; BMS maize suspension cells, 4 days, FIG. 6)","concentrations at which active/effective in inhibiting germination ([1]; tested 0.33-33 μM, 7-day test)"
"CC1=CC(=O)CC(C)(C)C1(O)/C=C/C(C)=C\C(=O)O (single isomer, unassigned; (+)) [(+)-ABA, abscisic acid, reference compound]",~0.4,inhibited the growth,–,–,–,–
"CC(=C/C(=O)O)/C=C/[C@@]1(O)c2ccccc2C(=O)CC1(C)C [(+)-[8], (2Z,4E)-5-((1S)-1-Hydroxy-2,2-dimethyl-4-oxo-1,2,3,4-tetrahydro-naphthalen-1-yl)-3-methyl-penta-2,4-dienoic acid]",less than 0.1,inhibited the growth,more effective germination inhibitor than (+) ABA,highly effective,~10 fold,–
"abscisic acid [(−) enantiomer of ABA [1], reference compound]",–,–,–,–,–,≥ 3.33 µM
